Test results from patent US20040023972A1, “Use of substituted imidazo[1,2-a]-pyridin-, -pyrimidin-and-pyrazin-3-yl-amine derivatives in the preparation of medicaments for inhibiting NOS” (Gruenenthal GmbH, priority 2000, published 2004).

Biological target: T1, NO synthase (Rattus norvegicus, UniProt P29476)
T1 construct: the supernatant was then removed by decantation and frozen in portions at −80° C; from tissue; host or cells: rat cerebellum, 20,000 g supernatant of homogenate
Test: HTS-NOS assay (NOS assay): conversion of radioactive arginine, cation-exchanger filter plate
Assay type: biochemical
Conditions: 10 μM
How it was run: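 Rat cerebellum supernatant as NOS source, incubated with radiolabelled arginine plus cofactors including NADPH at 25 °C for 5-60 min depending on enzyme activity. Unconverted arginine was trapped on a cation-exchange filter plate, citrulline washed out, and bound arginine counted by scintillation; % inhibition versus no-compound reactions.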

Row | SMILES | HTS-NOS assay: % inhibition (10 μM) [%]
1 | C#[N+]CCCCCCN(C(C)=O)c1c(-c2ccc(C)cc2)nc2cc(C)ccn12 [Example 279, {6-[acetyl-(7-methyl-2-p-tolyl-imidazo[1,2-a]pyridin-3-yl)-amino]-hexyl}-methylidyne-ammonium] | 71
2 | [C-]#[N+]CCCCCCN(C(C)=O)c1c(-c2ccccc2OC)nc2cc(C)ccn12 [Example 281, (6-{acetyl-[2-(2-methoxy-phenyl)-7-methyl-imidazo[1,2-a]pyridin-3-yl]-amino}-hexyl)-methylidyne-ammonium] | 62
3 | C#[N+]CCCCCCN(C(C)=O)c1c(-c2ccccn2)nc2cc(C)cc(C)n12 [Example 289, {6-[acetyl-(5,7-dimethyl-2-pyridin-2-yl-imidazo[1,2-a]pyridin-3-yl)-amino]-hexyl}-methylidyne-ammonium] | 63

Same assay, conditions: Table 5; concentration not given

Row | SMILES | NOS assay % inhibition [%]
4 | Cc1cc(C)n2c(NC3CCCC3)c(-c3ccc(Br)cc3F)nc2c1.Cl [Example 304, [2-(4-Bromo-2-fluoro-phenyl)-5,7-dimethyl-imidazo[1,2-a]pyridin-3-yl]-cyclopentyl-amine hydrochloride] | 56
5 | Cc1cc(C)n2c(NC3CCCC3)c(-c3ccc(-c4ccc(Cl)cc4)o3)nc2c1.Cl [Example 306, {2-[5-(4-Chlorophenyl)-furan-2-yl]-5,7-dimethyl-imidazo[1,2-a]pyridin-3-yl}-cyclopentyl-amine hydrochloride] | 73
6 | Cc1cc(C)n2c(NC3CCCC3)c(-c3ccoc3)nc2c1.Cl [Example 307, Cyclopentyl-(2-furan-3-yl-5,7-dimethyl-imidazo(1,2-a]pyridin-3-yl)-amine hydrochloride] | 57
7 | Cc1cc(C)n2c(NC(C)(C)CC(C)(C)C)c(-c3ccoc3)nc2c1.Cl [Example 308, (2-Furan-3-yl-5,7-dimethyl-imidazo[1,2-a]-pyridin-3-yl)-(1,1,3,3-tetramethyl-butyl)-amine hydrochloride] | 50
8 | Cc1ccn2c(NCc3ccccc3)c(-c3ccsc3)nc2c1.Cl [Example 309, Benzyl-(7-methyl-2-thiophen-3-yl-imidazo-[1,2-a]pyridin-3-yl)-amine hydrochloride] | 45
9 | Cc1ccn2c(NC(C)(C)CC(C)(C)C)c(-c3ccoc3)nc2c1.Cl [Example 311, (2-Furan-3-yl-7-methyl-imidazo[1,2-a]pyridin-3-yl)-(1,1,3,3-tetramethyl-butyl)-amine hydrochloride] | 45

Other lines, results leading:

Row | NOS assay % inhibition [%] | SMILES
10 | 55 | Cc1cc(C)n2c(NC3CCCC3)c(-c3ccc(-c4ccccc4[N+](=O)[O-])o3)nc2c1.Cl [Example 305, Cyclopentyl-{5,7-dimethyl-2-[5-(2-nitro-phenyl)-furan-2-yl]-imidazo[1,2-a]pyridin-3-yl}-amine hydrochloride]
11 | 74 | Cc1cc(C)n2c(NC(C)(C)CC(C)(C)C)c(-c3ccsc3)nc2c1.Cl [Example 312, (5,7-Dimethyl-2-thiophen-3-yl-imidazo[1,2-a]-pyridin-3-yl)-(1,1,3,3-tetramethyl-butyl)-amine hydrochloride]

Same assay, conditions: Table 5; concentration not given; hydrochloride

Row | NOS assay % inhibition [%] | SMILES
12 | 54 | Cc1cc(C)n2c(NC3CCCCC3)c(-c3ccoc3)nc2c1.Cl [Example 302, Cyclohexyl-(2-furan-3-yl-5,7-dimethyl-imidazo-[1,2-a]pyridin-3-yl)-amine hydrochloride]
13 | 52 | Cc1cc(C)n2c(NC3CCCCC3)c(-c3ccoc3)nc2c1.Cl [Example 310, Cyclohexyl-(2-furan-3-yl-5,7-dimethyl-imidazo-[1,2-a]pyridin-3-yl)-amine hydrochloride]

Same assay, conditions: read-out: HTS-NOS assay: % inhibition (10 μM)

Row | SMILES | inhibition at 10 µM [%]
14 | CC(=O)N(c1c(-c2ccc(Cl)cc2Cl)nc2cccc(C)n12)C1CCCCC1 [Example 274, N-cyclohexyl-N-[2-(2,4-dichloro-phenyl)-5-methyl-imidazo[1,2-a]pyridin-3-yl]-acetamide] | 64
15 | CC(=O)N(c1c(-c2ccc(Cl)cc2Cl)nc2ncccn12)C1CCCCC1 [Example 275, N-cyclohexyl-N-[2-(2,4-dichloro-phenyl)-imidazo[1,2-a]pyrimidin-3-yl]-acetamide] | 59
16 | CCCCN(C(C)=O)c1c(-c2ccc(C)cc2)nc2ccc(C)cn12 [Example 280, N-butyl-N-(6-methyl-2-p-tolyl-imidazo[1,2-a]pyridin-3-yl)-acetamide] | 53
17 | CC(=O)N(c1c(-c2ccc(C(=O)O)o2)nc2ccc(C)cn12)C(C)(C)CC(C)(C)C [Example 282, 5-{3-[acetyl-(1,1,3,3-tetramethyl-butyl)-amino]-6-methyl-imidazo[1,2-a]pyridin-2-yl}-furan-2-carboxylic acid] | 51
18 | COC(=O)CN(C(C)=O)c1c(-c2ccccc2C)nc2ncccn12 [Example 285, [acetyl-(2-o-tolyl-imidazo[1,2-a]pyrimidin-3-yl)-amino]-acetic acid methyl ester] | 51
19 | CCCCN(C(C)=O)c1c(-c2ccc(C)cc2)nc2nc(C)ccn12 [Example 287, N-butyl-N-(7-methyl-2-p-tolyl-imidazo[1,2-a]pyrimidin-3-yl)-acetamide] | 58
20 | CC(=O)N(c1c(-c2ccc(F)cc2Cl)nc2ccccn12)C(C)(C)C [Example 291, N-tert-butyl-N-[2-(2-chloro-4-fluoro-phenyl)-imidazo[1,2-a]pyridin-3-yl]-acetamide] | 53
21 | CCc1ccn2c(NCc3ccccc3OC)c(-c3ccc([N+](=O)[O-])o3)nc2c1 [Example 313, [7-Ethyl-2-(5-nitro-furan-2-yl)-imidazo[1,2-a]pyridin-3-yl]-(2-methoxy-benzyl)-amine] | 32
22 | CCc1ccn2c(NCc3ccccc3Cl)c(-c3ccco3)nc2c1 [Example 316, (2-Chloro-benzyl)-(7-ethyl-2-furan-2-yl-imidazo[1,2-a]pyridin-3-yl)-amine] | 52
23 | CCc1ccn2c(Nc3ccc(F)c(Cl)c3)c(-c3ccc(C)o3)nc2c1 [Example 317, (3-Chloro-4-fluoro-phenyl)-[7-ethyl-2-(5-methyl-furan-2-yl)-imidazo[1,2-a]pyridin-3-yl]-amine] | 59
24 | CCc1ccn2c(Nc3ccc(F)c(Cl)c3)c(-c3cc4ccccc4o3)nc2c1 [Example 318, (2-Benzofuran-2-yl-7-ethyl-imidazo[1,2-a]-pyridin-3-yl)-(3-chloro-4-fluoro-phenyl)-amine] | 52

The next lines start with the values.

Row | inhibition at 10 µM [%] | SMILES
25 | 50 | COC(=O)CN(C(C)=O)c1c(-c2ccccc2C)nc2cnccn12 [Example 276, [acetyl-(2-o-tolyl-imidazo[1,2-a]pyrazin-3-yl)-amino]-acetic acid methyl ester]
26 | 53 | CC(=O)N(c1c(-c2cccs2)nc2c(Cl)cc(Cl)cn12)C(C)(C)C [Example 277, N-tert-butyl-N-(6,8-dichloro-2-thiophen-2-yl-imidazo[1,2-a]pyridin-3-yl)-acetamide]
27 | 55 | CCCc1cccc2nc(-c3cccs3)c(N(C(C)=O)C(C)(C)C)n12 [Example 278, N-tert-butyl-N-(5-propyl-2-thiophen-2-yl-imidazo[1,2-a]pyridin-3-yl)-acetamide]
28 | 51 | CCCCN(C(C)=O)c1c(-c2cc(OC)c(OC)c(OC)c2)nc2cnccn12 [Example 283, N-butyl-N-[2-(3,4,5-trimethoxy-phenyl)-imidazo[1,2-a]pyrazin-3-yl]-acetamide]
29 | 51 | CCCCN(C(C)=O)c1c(-c2cccc(O)c2)nc2ncccn12 [Example 284, N-butyl-N-[2-(3-hydroxy-phenyl)-imidazo[1,2-a]pyrimidin-3-yl]-acetamide]
30 | 59 | CC(=O)N(c1c(-c2cc3ccccc3o2)nc2c(C)cccn12)C(C)(C)CC(C)(C)C [Example 286, N-(2-benzofuran-2-yl-8-methyl-imidazo[1,2-a]pyridin-3-yl)-N-(1,1,3,3-tetramethyl-butyl)-acetamide]
31 | 62 | CC(=O)N(c1c(C)nc2c(Br)cc(Br)cn12)C(C)(C)C [Example 288, N-tert-butyl-N-(6,8-dibromo-2-methyl-imidazo[1,2-a]pyridin-3-yl)-acetamide]
32 | 67 | CCOc1ccc2ccccc2c1-c1nc2cc(C)ccn2c1N(C(C)=O)C(C)(C)C [Example 290, N-tert-butyl-N-[2-(2-ethoxy-naphthalen-1-yl)-7-methyl-imidazo[1,2-a]pyridin-3-yl]-acetamide]
33 | 47 | CCc1ccn2c(NCc3ccccc3Cl)c(-c3ccc([N+](=O)[O-])o3)nc2c1 [Example 314, (2-Chlorobenzyl)-[7-ethyl-2-(5-nitro-furan-2-yl)-imidazo[1,2-a]pyridin-3-yl]-amine]
34 | 32 | CCc1ccn2c(NCc3ccccc3OC)c(-c3ccc(C)o3)nc2c1 [Example 315, [7-Ethyl-2-(5-methyl-furan-2-yl)-imidazo[1,2-a]pyridin-3-yl]-(2-methoxy-benzyl)-amine]
35 | 53 | CCc1ccn2c(Nc3cccc(Cl)c3)c(-c3cc4ccccc4o3)nc2c1 [Example 319, (2-Benzofuran-2-yl-7-ethyl-imidazo[1,2-a]-pyridin-3-yl)-(3-chloro-phenyl)-amine]
36 | 52 | CCc1ccn2c(Nc3ccc(F)c(Cl)c3)c(-c3ccc(-c4cccc(Cl)c4)o3)nc2c1 [Example 320, (3-Chloro-4-fluorophenyl)-{2-[5-(3-chloro-phenyl)-furan-2-yl]-7-ethyl-imidazo[1,2-a]-pyridin-3-yl}-amine]
37 | 50 | CCc1ccn2c(Nc3ccc(F)c(Cl)c3)c(-c3ccc(-c4ccccc4Cl)o3)nc2c1 [Example 321, (3-Chloro-4-fluorophenyl)-{2-[5-(2-chlorophenyl)-furan-2-yl]-7-ethyl-imidazo[1,2-a]pyridin-3-yl}-amine]
